Where “and” joins values, the source holds several entries; their conditions need not be identical. Equal values may be shown once.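 Following 48 hours of exposure in 96-well plates, responses at five concentrations were used to interpolate endpoints linearly. TGI: total growth inhibition.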

In one test the test system is CCRF-CEM leukemia. Briefly: DTP human tumour cell line panel, 48 h.
A word on the TGI: it is the concentration at which net growth stops. `O=C1C(Cl)=C(N2CCN(C3=C(Cl)C(=O)c4ccccc4C3=O)CC2)C(=O)c2ccccc21` had a TGI of 0.718 µM.

Turning to `CC(C)(N=NC(C)(C)C(=O)NCCO)C(=O)NCCO`, the concentration for total growth inhibition (TGI) is more than 100 µM.

In turn, `CCOc1cc(NC(C)=O)ccc1C(=O)NNC(=O)c1ccccc1OC(C)=O` showed a TGI of more than 100 µM.

Consider `Cc1nnc2n1N=C(c1cc(F)c(Cl)cc1Cl)/C(=C/c1ccc(Cl)cc1)S2`, for which the TGI was more than 100 µM.

Regarding `CC(O[Si](c1ccccc1)(c1ccccc1)C(C)(C)C)[C@H](NC(=O)OC(C)(C)C)C(=O)O[Si](c1ccccc1)(c1ccccc1)C(C)(C)C` (stereo partly specified), the total growth inhibition concentration (TGI) stood at 76.6 µM.

With `COc1cc(/C=C2/C(=O)N(C(=O)c3ccccc3O)N=C2C)cc(OC)c1OC`, the total growth inhibition concentration (TGI) is more than 100 µM.

`CCCCCCCCCCCCCCCCCCNc1ccn(C2OC(COP(=O)(O)OCC3OC(n4ccc(NC(=O)CCCCCCCCCCCCCCCCC)nc4=O)C(OC(C)=O)C3OC(C)=O)C(OC(C)=O)C2OC(C)=O)c(=O)n1` (stereo unspecified) registered a TGI of more than 100 µM.

Take `COc1cccc(-c2cc(=O)c3ccccc3o2)c1N`: the TGI was more than 100 µM.

Compound `Cc1nc2c(sc(=S)n2-c2ccccc2)c2nc3ncccc3n12` had a TGI of more than 100 µM.

`Cc1c(-c2nc3ccccc3[nH]2)c(=O)n(-c2ccccc2)n1C` displayed a TGI of more than 100 µM.

Compound `Cc1nnc(Nc2ccccc2)o1` returned a TGI of more than 100 µM.

`COc1cc(O)c(/C=N/N=C(\N)NO)c(OC)c1` registered a TGI of more than 10 µM.

`CCCCN1C(=O)CC2[C@@H]3CCc4cc(OC(C)=O)ccc4C3CC[C@]2(C)C1=O` (stereo partly specified) gave a TGI of more than 10 µM.

In a further test the test system is HL-60(TB) leukemia. Briefly: DTP human tumour cell line panel, 48 h.
With `NC(=O)N/N=C(\Cc1nc2ccc(Cl)cc2[nH]c1=O)C(=O)Nc1ccc(Cl)cc1Cl`, the TGI is more than 100 µM.

With `O=c1nc(N2CCN(c3ccccc3)CC2)ccn1C1OC(CO)C(O)C1O` (stereo unspecified), the TGI is 63.5 µM.

`OCCCCCNc1c2ccccc2nc2ccccc12`: the TGI is more than 39 µM.

In the case of `CCOP(=O)(OCC)/C(C#N)=C/c1cnc(-c2ccccc2)[nH]1`, the TGI was more than 100 µM.

Take `CC(=O)OCC1OC(OC(C)(C)CC/C=C(\C)[C@@H]2C/C=C(\C)CC/C=C(\C)CC2)C(O)C(O)C1OC(C)=O` (stereo partly specified): the TGI worked out at 67.3 µM.

In turn, `CN(C)CCCOC(=O)C(c1ccccc1)C1(O)CCSCC1` (stereo unspecified) came in with a TGI of more than 100 µM.

For `COCOC1/C=C/CCCCC2=C(C)C=C(C1)O2` (stereo unspecified), the TGI is more than 100 µM.

In turn, `O=C(O)c1cc2c(cc1CC(Cc1ccc3c(c1)CCC3)C(=O)O)CCC2` (stereo unspecified) yielded a total growth inhibition concentration (TGI) of more than 100 µM.

For `C[C@@]12[C@H]3CC[C@@H]1[C@H](O)C(=O)N2CC3`, the TGI was more than 100 µM.

Compound `O=C1CCC[C@@H]2NC[C@@H](c3ccc4c(c3)OCO4)[C@H]12` displayed a TGI of more than 25 µM.

The compound `Cc1ccc([C@@H]2[C@@H](C(=O)c3ccccn3)[C@H](c3ccc(C)cc3)C[C@](O)(c3ccccn3)[C@H]2C(=O)c2ccccn2)cc1` registered a TGI of 6.92 µM.

For the compound `O=C1C(Cl)=C(N2CCN(C3=C(Cl)C(=O)c4ccccc4C3=O)CC2)C(=O)c2ccccc21`, the concentration for total growth inhibition (TGI) came out at 1.26 µM.

`CC(C)(N=NC(C)(C)C(=O)NCCO)C(=O)NCCO` gave a TGI of more than 100 µM.

The compound `CCOc1cc(NC(C)=O)ccc1C(=O)NNC(=O)c1ccccc1OC(C)=O` had a TGI of more than 42.2 µM.

For the compound `Cc1nnc2n1N=C(c1cc(F)c(Cl)cc1Cl)/C(=C/c1ccc(Cl)cc1)S2`, the TGI was more than 100 µM.

As to `CC(O[Si](c1ccccc1)(c1ccccc1)C(C)(C)C)[C@H](NC(=O)OC(C)(C)C)C(=O)O[Si](c1ccccc1)(c1ccccc1)C(C)(C)C` (stereo partly specified), the concentration for total growth inhibition (TGI) came to 31 µM.

`COc1cc(/C=C2/C(=O)N(C(=O)c3ccccc3O)N=C2C)cc(OC)c1OC` returned a TGI of more than 60.3 µM.

Turning to `CCCCCCCCCCCCCCCCCCNc1ccn(C2OC(COP(=O)(O)OCC3OC(n4ccc(NC(=O)CCCCCCCCCCCCCCCCC)nc4=O)C(OC(C)=O)C3OC(C)=O)C(OC(C)=O)C2OC(C)=O)c(=O)n1` (stereo unspecified), the TGI was more than 100 µM.

Consider `COc1cccc(-c2cc(=O)c3ccccc3o2)c1N`, for which the TGI is more than 100 µM.

Turning to `Cc1nc2c(sc(=S)n2-c2ccccc2)c2nc3ncccc3n12`, the concentration for total growth inhibition (TGI) is more than 100 µM.

For `Cc1c(-c2nc3ccccc3[nH]2)c(=O)n(-c2ccccc2)n1C`, the TGI was more than 100 µM.

`Cc1nnc(Nc2ccccc2)o1`: the concentration for total growth inhibition (TGI) was more than 100 µM.

In the case of `COc1cc(O)c(/C=N/N=C(\N)NO)c(OC)c1`, the TGI was more than 10 µM.

On to `CCCCN1C(=O)CC2[C@@H]3CCc4cc(OC(C)=O)ccc4C3CC[C@]2(C)C1=O` (stereo partly specified), for which the TGI was more than 10 µM.

For a further test, the system named is HT29 colon. Briefly: DTP human tumour cell line panel, 48 h.
`NC(=O)N/N=C(\Cc1nc2ccc(Cl)cc2[nH]c1=O)C(=O)Nc1ccc(Cl)cc1Cl` had a TGI of more than 100 µM.

The compound `O=c1nc(N2CCN(c3ccccc3)CC2)ccn1C1OC(CO)C(O)C1O` (stereo unspecified) showed a concentration for total growth inhibition (TGI) of more than 100 µM.

`OCCCCCNc1c2ccccc2nc2ccccc12` had a TGI of 20.7 µM.

`CCOP(=O)(OCC)/C(C#N)=C/c1cnc(-c2ccccc2)[nH]1` had a TGI of more than 100 µM.

Regarding `CC(=O)OCC1OC(OC(C)(C)CC/C=C(\C)[C@@H]2C/C=C(\C)CC/C=C(\C)CC2)C(O)C(O)C1OC(C)=O` (stereo partly specified), the TGI was > 55.5 µM and 28.1 µM.

For `CN(C)CCCOC(=O)C(c1ccccc1)C1(O)CCSCC1` (stereo unspecified), the TGI was more than 100 µM.

Compound `COCOC1/C=C/CCCCC2=C(C)C=C(C1)O2` (stereo unspecified) registered a TGI of more than 100 µM.

In turn, `O=C(O)c1cc2c(cc1CC(Cc1ccc3c(c1)CCC3)C(=O)O)CCC2` (stereo unspecified) returned a TGI of more than 100 µM.

The compound `C[C@@]12[C@H]3CC[C@@H]1[C@H](O)C(=O)N2CC3` yielded a TGI of more than 100 µM.

`O=C1CCC[C@@H]2NC[C@@H](c3ccc4c(c3)OCO4)[C@H]12` registered a TGI of more than 25 µM.

Take `Cc1ccc([C@@H]2[C@@H](C(=O)c3ccccn3)[C@H](c3ccc(C)cc3)C[C@](O)(c3ccccn3)[C@H]2C(=O)c2ccccn2)cc1`: the total growth inhibition concentration (TGI) is more than 100 µM.

The compound `O=C1C(Cl)=C(N2CCN(C3=C(Cl)C(=O)c4ccccc4C3=O)CC2)C(=O)c2ccccc21` gave a total growth inhibition concentration (TGI) of 5.27 µM.

`CC(C)(N=NC(C)(C)C(=O)NCCO)C(=O)NCCO` registered a TGI of more than 100 µM.

`CCOc1cc(NC(C)=O)ccc1C(=O)NNC(=O)c1ccccc1OC(C)=O` registered a TGI of more than 100 µM.

`Cc1nnc2n1N=C(c1cc(F)c(Cl)cc1Cl)/C(=C/c1ccc(Cl)cc1)S2` had a TGI of 34.5 µM.

In turn, `CC(O[Si](c1ccccc1)(c1ccccc1)C(C)(C)C)[C@H](NC(=O)OC(C)(C)C)C(=O)O[Si](c1ccccc1)(c1ccccc1)C(C)(C)C` (stereo partly specified) registered a TGI of 23.9 µM.

`COc1cc(/C=C2/C(=O)N(C(=O)c3ccccc3O)N=C2C)cc(OC)c1OC` registered a TGI of more than 100 µM.

Turning to `CCCCCCCCCCCCCCCCCCNc1ccn(C2OC(COP(=O)(O)OCC3OC(n4ccc(NC(=O)CCCCCCCCCCCCCCCCC)nc4=O)C(OC(C)=O)C3OC(C)=O)C(OC(C)=O)C2OC(C)=O)c(=O)n1` (stereo unspecified), the TGI is more than 100 µM.

In turn, `COc1cccc(-c2cc(=O)c3ccccc3o2)c1N` returned a TGI of more than 100 µM.

`Cc1nc2c(sc(=S)n2-c2ccccc2)c2nc3ncccc3n12` came in with a TGI of more than 100 µM.

The compound `Cc1c(-c2nc3ccccc3[nH]2)c(=O)n(-c2ccccc2)n1C` displayed a TGI of more than 100 µM.

As to `Cc1nnc(Nc2ccccc2)o1`, the total growth inhibition concentration (TGI) is more than 100 µM.

As for `COc1cc(O)c(/C=N/N=C(\N)NO)c(OC)c1`, the TGI is more than 10 µM.

`CCCCN1C(=O)CC2[C@@H]3CCc4cc(OC(C)=O)ccc4C3CC[C@]2(C)C1=O` (stereo partly specified) yielded a concentration for total growth inhibition (TGI) of more than 10 µM.

The record behind these values is PubChem BioAssay (NCI).
